Here are results for eight compounds from patent US4686207A (Abbott Laboratories, priority 1985, dated 1987).

For series [1], the system named is Staph. aureus 10649. Nature of the series: Chronic abscess model, in vivo efficacy vs. Staph. aureus 10649. Further details: species or system Staph. aureus (infected mouse). The note with it: mice pretreated with milk. The text has this:
Thus, the improved oral activity of the compounds of formula I can be attributed to improved gastrointestinal absorption of these compounds. […] In this model, sustained blood levels of antibiotic will prevent reinfection by the organism at the abscess site after the last treatment.

Series [2] relates to Staph. aureus 10649. Kind of series: Acute mouse protection, in vivo efficacy vs. Staph. aureus 10649 (100-1000 LD50 s). Details: species or system Staph. aureus (infected mouse). The note with it: for ED50 Oral (milk) / ED50 Subcutaneous / ED50: Acute Mouse Protection. The source says: In Vivo Efficacy vs. Staph. aureus 10649
Model Number Subcutaneous
Thus, the improved oral activity of the compounds of formula I can be attributed to improved gastrointestinal absorption of these compounds.

The conditions of series [3]: in man; cited from earlier work.
For series [4] the following is noted: pH 4; cited from earlier work.
The conditions of series [5]: in vivo; cited from earlier work.
A short description of the next series: Acid stability. The note with it: compared with erythromycin A. Format: physicochemical.
Series [6] can be described thus: Serum blood levels after oral administration to beagle dogs (FIG. 1). Format: in vivo, beagle dog. The note with it: 10.0 mg/kg, solution of a buffered salt in water, three beagle dogs, 24 hours. As to the method: The serum half-lives of the new compounds have been measured in both rats and dogs (t0.5 =2-3 hours in rats, 8-12 hours in dogs). […] Similarly, erythromycin A was administered to other dogs at an equal dosage. Serum concentrations of the administered drug were determined hourly over the 24 hours following administration. The results are depicted in FIG. 1.

The subject of series [7] is gastrointestinal tissues (stomach, duodenum, jejunum and ileum). Kind of series: Gastrointestinal stimulating activity in a dog model, overall. The note with it: 2 mg/kg intravenously.
Procedure: Contractions in the gut were recorded with surgically implanted strain gauges.
Setting [8] is: oral, mice pretreated with milk.
Setting [9] is: Staphylococcus aureus, 10649, po, oral, mice pretreated with milk, read-out: ED50 Oral (milk).
[10] abbreviates: Staphylococcus aureus, 10649, sc, subcutaneous, read-out: ED50 Subcutaneous.

Structures can show the parent of a compound that is named as a salt.

The term ED50 denotes the dose that gives a 50% effect, or the effect in half of the subjects.

Regarding “4"-N,N-dimethylglycylerythromycin A 11,12-carbonate 6,9-hemiacetal monohydrochloride salt [Example 7]”, in the series with Staph. aureus 10649 [1], the “ED50 Oral (milk)” value came to 36 mg/kg.
As for “4"-N-CBZ-sarcosyl erythryomycin A 11,12-carbonate-6,9-hemiacetal [Example 6]”, in the series on Staph. aureus 10649 [2] (setting [8]), the “ED50 Oral (milk)” value came to 34 mg/kg. For the same compound, in the series with Staph. aureus 10649 [2] (subcutaneous), the “ED50 Subcutaneous” value came out at 35 mg/kg.
With `CC[C@H]1OC(=O)[C@H](C)[C@@H](O[C@H]2C[C@@](C)(OC)[C@@H](O)[C@H](C)O2)[C@H](C)[C@@H](O[C@@H]2O[C@H](C)C[C@H](N(C)C)[C@H]2O)[C@](C)(O)C[C@@H](C)C(=O)[C@H](C)[C@@H](O)[C@]1(C)O` [Compound 1, erythromycin A], the serum half-life in series [3] was 2 to 3 h. For the same compound, the “antibacterial activity in an environment of high acidity” value in series [4] was “rapidly loses its antibacterial activity”. In addition, the oral absorption result in series [5] is “unreliably absorbed when administered orally”. Further, the ED50 with Staph. aureus 10649 [1] (Staphylococcus aureus, 10649, oral) stood at 200 mg/kg; in the series with Staph. aureus 10649 [2] (setting [9]), 81 mg/kg; in the series with Staph. aureus 10649 [2] (setting [10]), 6 mg/kg. Also, in the series on Staph. aureus 10649 [2] (setting [8]), the “ED50 Oral (milk)” value is 52 mg/kg. Further, in the series on Staph. aureus 10649 [2] (subcutaneous), the “ED50 Subcutaneous” value was found to be 9 mg/kg.
`CC[C@H]1OC(=O)[C@H](C)[C@@H](O[C@H]2C[C@@](C)(OC)[C@@H](O)[C@H](C)O2)[C@H](C)[C@@H](O[C@@H]2O[C@H](C)C[C@H](N(C)C)[C@H]2O)[C@@]2(C)C[C@@H](C)C(O)(O2)[C@H](C)[C@H]2OC(=O)O[C@@]21C` [Compound 2, erythromycin A 11,12-carbonate-6,9-hemiacetal]: the “acid stability relative to erythromycin A” value in “Acid stability” was “significantly more acid-stable than erythromycin A”. The values for the ED50 in the series with Staph. aureus 10649 [2] (setting [9]) and in the series on Staph. aureus 10649 [2] (setting [10]) were 69 mg/kg and 15 mg/kg, respectively. For the same compound, the “subcutaneous versus oral activity” value with Staph. aureus 10649 [2] (Table I, milk-pretreated mice) was “more active subcutaneously than orally”.
For `CC[C@H]1OC(=O)[C@H](C)[C@@H](O[C@H]2C[C@@](C)(OC)[C@@H](OC(C)=O)[C@H](C)O2)[C@H](C)[C@@H](O[C@@H]2O[C@H](C)C[C@H](N(C)C)[C@H]2O)[C@](C)(O)C[C@@H](C)C(=O)[C@H](C)[C@@H](O)[C@]1(C)O` [Compound 3, 4"-acetylerythromycin A], the ED50 in the series on Staph. aureus 10649 [2] (setting [9]) worked out at 100 mg/kg; in the series on Staph. aureus 10649 [2] (setting [10]) it was 30 mg/kg.
The corresponding values for `CC[C@H]1OC(=O)[C@H](C)[C@@H](O[C@H]2C[C@@](C)(OC)[C@@H](OC(C)=O)[C@H](C)O2)[C@H](C)[C@@H](O[C@@H]2O[C@H](C)C[C@H](N(C)C)[C@H]2O)[C@@]2(C)C[C@@H](C)C(O)(O2)[C@H](C)[C@H]2OC(=O)O[C@@]21C` [Compound 4, 4"-acetylerythromycin A 11,12-carbonate-6,9-hemiketal HCl salt] are 40 mg/kg and 27 mg/kg.
On to `CC[C@H]1OC(=O)[C@H](C)[C@@H](O[C@H]2C[C@@](C)(OC)[C@@H](OC(C)=O)[C@H](C)O2)[C@H](C)[C@@H](O[C@@H]2O[C@H](C)C[C@H](N(C)C)[C@H]2O)[C@@]2(C)C[C@@H](C)C(O)(O2)[C@H](C)[C@H]2OC(=O)O[C@@]21C` [Compound 7, 4"-acetylerythromycin A 11,12-carbonate-6,9-hemiacetal free base], for which, in series [6], the “half life relative to erythromycin A” value is on record as “markedly longer half life” and the “peak blood level relative to erythromycin A” value is recorded as “higher peak blood level”.
Take `CC[C@H]1OC(=O)[C@H](C)[C@@H](O[C@H]2C[C@@](C)(OC)[C@@H](O)[C@H](C)O2)[C@H](C)[C@@H](O[C@@H]2O[C@H](C)C[C@H](N(C)C)[C@H]2O)[C@](C)(O)C[C@@H](C)C(=O)[C@H](C)[C@@H](O)[C@]1(C)O` [erythromycin A lactobionate]: the “stimulation of the stomach, duodenum, jejunum and ileum” value in series [7] is reported as “pronounced stimulation”.
